Here are results for one compound from patent US20050238734A1, “Detection of nitrosylated proteins” (University of Vermont and State Agricultural College, priority 2004, published 2005).

Experiment [1] addresses T1, RanGTPase (Mus musculus, UniProt P62827).
T1 construct: Ran was immunoprecipitated from equivalent amounts of total cell lysates; endogenous in cells; host or cells: C10 mouse lung alveolar type II epithelial cells
In words: SNO content of immunoprecipitated RanGTPase by chemiluminescence. The following applies: 1 mM, about 1 hour. It is filed as cell-based. On the procedure:
S-nitrosothiols were detected in cell lysates or immunoprecipitated protein by chemiluminescence, using a nitric oxide analyzer (Ionics, Boulder, Colo.). Cell lysates were incubated for about 15 minutes in the presence or absence of sulfanilamide (0.5%).
Ran was immunoprecipitated from equivalent amounts of total cell lysates, using a Ran goat polyclonal IgG (Santa Cruz) and protein G-agarose beads. The immunoprecipitates were washed three times with HEN buffer (25 mM HEPES, pH 7.7, 0.1 mM EDTA, 0.01 mM neocuproine) and the immunocomplexes were injected into the purge vessel for NO analysis.
Chemiluminescence was first performed to detect the S-nitrosylation of immunoprecipitated RanGTPase. […] In these experiments, the cells were treated with 1 mM GSNO for about 1 hour, washed, and Ran was immunoprecipitated form the total lysate using a Ran-specific antibody and protein G agarose beads. The immunocomplexes were washed three times and directly injected into the purge vessel using techniques similar to those described in Example 1. As a control, pre-immune IgG was used instead of Ran antibody. Western blot analysis confirmed the presence of RanGTPase in the immunocomplexes (FIG. 7B).

Another experiment has as its system C10 cells. Put plainly: In situ detection of S-nitrosylated proteins in intact cells (biotin derivatization, streptavidin-FITC, confocal microscopy). It is filed as cell-based, mouse. The following applies: 1 mM, 1 hour. How it is done: A line of spontaneously transformed mouse lung alveolar type II epithelial cells (C10) was used in some experiments, as described below. C10 cells were cultured in CMRL1066 medium containing 10% fetal bovine serum (FBS, GIBCO). In experiments involving microscopic analysis, the cells were grown on glass cover slips. At about one hour prior to exposure to a test agent, the medium was switched to phenol red free DMEM/F12 containing 0.5% FBS. Some cells were exposed to S-nitroso-glutathione (GSNO) or S-nitroso-N-acetyl penicillamine (SNAP) for about 1 hour, in the presence of an equimolar concentration of freshly prepared L-cysteine. To monitor S-nitrosylation in response to NOS2 activation, the cells were treated with 10 ng/ml TNF alpha (TNFα) and 100 U/ml interferon gamma (IFNγ), for about 24 hours. Incubation with L-N-monomethyl arginine (L-NMMA) for about 16 hours was used to inhibit endogenous NO production and D-NMMA (D-N-monomethyl arginine) was used as a control. Nuclear export was blocked by leptomycin B (5 ng/ml, exposure for about 12 hours). All experiments were performed in duplicate and were repeated at least three times.
To evaluate the localization of S-nitrosylated proteins in intact cells, the biotin derivatization method described above was used in combination with fluorophore labeling and visualized using confocal microscopy. Cells grown on cover slips were rinsed with PBS containing 0.1 mM EDTA and 0.01 mM neocuproine, and fixed in 4% PFA (paraformaldehyde) for 20 minutes at RT. The cells were permeabilized, and protein SH groups were blocked using HEN buffer containing 2.5% SDS, 0.5% CHAPS, and 20 mM MMTS (methylmethanethiosulfonate) for 20 min at 55° C. with constant shaking. After removal of MMTS, the cells were incubated with 1 mM sodium ascorbate and 0.4 mM biotin-HPDP (N-[6-(biotinamido)hexyl]-3′-(2′-pyridyldithio)propionamide) for about an hour at RT, and the cover slips were then incubated overnight with streptavidin-FITC at 4° C. Blocking was performed using 20 mM NEM for 30 minutes at 4° C., followed by incubation with 0.05 mM MPB and 1 mM sodium ascorbate for 1 hour at RT. The nuclei were stained with 10 microgram/ml PI (propidium iodide) for 30 minutes at RT. The cells were analyzed by confocal microscopy (magnification 40×) using an Olympus BX50 microscope coupled to a Bio-Rad (Hercules Calif.) MRC 1024 confocal scanning laser microscope system. Control experiments were also performed in which blocking of SH groups was omitted, or in which 100 micromolar HgCl2 was added prior to blocking of SH groups with MMTS or NEM. To assess the contribution of endogenous biotinylated proteins, the biotin-label was omitted in some control cover slips. All manipulations were performed in the dark. […]

The test system of experiment [2] is Mouse lung epithelial (C10) cells. Put plainly: NO/S-nitrosothiol content of cell lysates by chemiluminescence. It is filed as cell-based. As to conditions: 1 mM GSNO, about one hour. How it is done:
A line of spontaneously transformed mouse lung alveolar type II epithelial cells (C10) was used in some experiments, as described below. […] In experiments involving microscopic analysis, the cells were grown on glass cover slips. At about one hour prior to exposure to a test agent, the medium was switched to phenol red free DMEM/F12 containing 0.5% FBS. Some cells were exposed to S-nitroso-glutathione (GSNO) or S-nitroso-N-acetyl penicillamine (SNAP) for about 1 hour, in the presence of an equimolar concentration of freshly prepared L-cysteine. To monitor S-nitrosylation in response to NOS2 activation, the cells were treated with 10 ng/ml TNF alpha (TNFα) and 100 U/ml interferon gamma (IFNγ), for about 24 hours. […] S-nitrosothiols were detected in cell lysates or immunoprecipitated protein by chemiluminescence, using a nitric oxide analyzer (Ionics, Boulder, Colo.). […] In order to eliminate the contribution of nitrites to the observed photoelectric signal, the cell lysates were incubated with a nitrite quencher, sulfanilamide, and assessed the sulfanilamide resistant NO signal by chemiluminescence. Under these experimental conditions, employing 12 micrograms of protein, S-nitrosthiol was not detected in the sham controls (<5 pmol), but a sulfamilamide-resistant NO signal was detected in lysates from cells treated with GSNO.

The test system of the next experiment is lungs of Balb/c mice. Put plainly: Detection of S-nitrosylated proteins in frozen lung sections after intratracheal administration. It is filed as in vivo, mouse. The following applies: 50 microliters of 10 mM intratracheally, about 2 hours, versus PBS.
For experiment [3], the target named is T1, RanGTPase. In words: Biotin derivatization of RanGTPase, immunoprecipitation, Western blot with streptavidin-HRP. It is filed as cell-based. As to conditions: after treatment of cells, versus basal. How it is done: Biotin labeling of S-nitrosylated proteins in cell lysates proceeded as follows. At selected time points, cells were rinsed with PBS containing 0.1 mM EDTA and 0.01 mM neocuproine and lysed in HEN buffer containing 0.1% SDS, 0.5% CHAPS, and 20 mM NEM (N-ethylmaleimide) by rocking for 30 minutes at 4° C. The lysates were centrifuged at 14,000 g at 4° C. for about 10 minutes, and the excess NEM used to block sulfhydryl groups (SH) was removed by protein precipitation with acetone. The pellets were resuspended in HEN buffer containing 1% SDS (HENS), and the S-nitrosothiols were reduced and biotinylated by the simultaneous addition of 10 mM sodium ascorbate and 0.05 mM of the sulfhydryl-specific biotinylating agent, MPB (N-(3-maleimidylpropionyl) biocytin, Molecular Probes), for 1 hour at room temperature (RT, about 25° C.). […] Biotinylation of Ran was detected using streptavidin-HRP. […]
To confirm that RanGTPase itself was S-nitrosylated, a biotin derivatization approach was used, including immunoprecipitating RanGTPase and determining biotinylated RanGTPase by Western blotting using streptavidin-HRP. […] Ran was immunoprecipitated from total cell lysates, and biotinylated RanGTPase was determined by Western blotting and by peroxidase-conjugated streptavidin (FIG. 7C, upper panel). […] In the lower panel of FIG. 7C, as a loading control, Ran was detected in whole cell lysates by Western blotting.
(In general: A western blot detects proteins with antibodies after separation by electrophoresis.)

For the compound `N[C@@H](CCC(=O)N[C@@H](CSN=O)C(=O)NCC(=O)O)C(=O)O` [GSNO, S-nitroso-glutathione], the “SNO content of immunoprecipitated RanGTPase” value on RanGTPase [1] was “increase”. Further, in the experiment on C10 cells, the “biotinylation (S-nitrosylated proteins) in intact cells” value was “enhanced”. Moreover, in experiment [2] (12 micrograms of protein), the “sulfanilamide-resistant NO signal (S-nitrosothiol) in lysates” value was “detected”. Besides, the “total NO content in lysates” value in experiment [2] (versus non-treated cells) is “increased”. Further, in the experiment on lungs of Balb/c mice, the “biotin reactivity (S-nitrosylated proteins) in lungs” value is reported as “markedly increased”. Besides, on RanGTPase [3], the “biotinylation of RanGTPase” value is given as “enhanced”.
